Laboratory results taken from EP1247803A2, “Indolinone compounds suitable for modulation of protein kinases” (Sugen, Inc., priority 1996, dated 1998).

What follows are molecules tested against T1, FLK-1 receptor (Mus musculus, UniProt P35918) (assay: FLK-1 ELISA (kinase activity of the FLK-1 receptor in FLK-1/NIH3T3 cells, VEGF stimulated)).
T1 construct: expressed in transfected cells; host or cells: NIH3T3 C7#3
Type: cell-based
Procedure, shortened: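 NIH3T3 C7#3 cells expressing FLK-1 were seeded at 25.000 cells/well, serum-starved overnight in 0.1% FBS, then treated with compound for two hours at 37°C (final DMSO 0.5%) before VEGF stimulation. Receptor was captured on anti-rabbit IgG-coated ELISA plates bearing affinity-purified anti-FLK-1 antiserum.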

T1 sequence (P35918 20-1345): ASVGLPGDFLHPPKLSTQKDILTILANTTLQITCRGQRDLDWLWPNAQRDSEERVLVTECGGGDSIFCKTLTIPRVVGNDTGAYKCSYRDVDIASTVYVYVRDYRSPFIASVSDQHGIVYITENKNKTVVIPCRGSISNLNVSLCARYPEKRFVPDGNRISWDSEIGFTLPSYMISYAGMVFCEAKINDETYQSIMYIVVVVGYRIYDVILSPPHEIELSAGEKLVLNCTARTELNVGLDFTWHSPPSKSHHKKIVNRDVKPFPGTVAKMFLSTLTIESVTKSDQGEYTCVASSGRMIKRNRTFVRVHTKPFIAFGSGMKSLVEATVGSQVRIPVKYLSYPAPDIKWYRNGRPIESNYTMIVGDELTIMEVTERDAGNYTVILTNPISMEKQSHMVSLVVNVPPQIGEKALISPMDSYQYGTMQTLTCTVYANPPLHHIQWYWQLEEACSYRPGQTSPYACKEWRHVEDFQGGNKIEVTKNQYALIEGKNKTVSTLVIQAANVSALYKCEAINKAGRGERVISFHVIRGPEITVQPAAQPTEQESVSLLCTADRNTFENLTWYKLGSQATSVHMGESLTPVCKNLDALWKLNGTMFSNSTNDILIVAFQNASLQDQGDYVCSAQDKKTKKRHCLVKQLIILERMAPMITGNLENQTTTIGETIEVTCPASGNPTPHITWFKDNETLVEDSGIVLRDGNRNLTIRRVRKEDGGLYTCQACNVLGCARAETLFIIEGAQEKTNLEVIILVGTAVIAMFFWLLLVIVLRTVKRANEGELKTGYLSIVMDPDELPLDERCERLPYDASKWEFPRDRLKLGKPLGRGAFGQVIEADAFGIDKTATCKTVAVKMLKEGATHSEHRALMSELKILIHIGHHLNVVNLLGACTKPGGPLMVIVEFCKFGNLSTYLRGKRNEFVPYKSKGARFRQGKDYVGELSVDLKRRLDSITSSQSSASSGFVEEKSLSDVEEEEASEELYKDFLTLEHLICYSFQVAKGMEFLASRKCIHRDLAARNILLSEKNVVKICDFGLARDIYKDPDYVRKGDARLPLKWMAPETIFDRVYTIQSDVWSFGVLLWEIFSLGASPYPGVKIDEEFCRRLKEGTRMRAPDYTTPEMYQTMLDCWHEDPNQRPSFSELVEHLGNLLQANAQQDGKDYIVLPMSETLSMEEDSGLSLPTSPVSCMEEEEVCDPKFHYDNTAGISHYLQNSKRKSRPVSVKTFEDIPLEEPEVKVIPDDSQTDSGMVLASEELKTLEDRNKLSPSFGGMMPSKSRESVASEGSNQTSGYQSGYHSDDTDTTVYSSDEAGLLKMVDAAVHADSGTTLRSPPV

Compound	Fik Kinase %Inhibition [%]
CC(C)(C)c1cc(C=C2C(=O)Nc3c(Br)cc(Br)cc32)ccc1O [10721/A09]	10.9
CNS(=O)(=O)c1ccc2c(c1)C(=Cc1cc3c([nH]1)CCCC3)C(=O)N2 [10721/D05]	-25.1
O=C1Nc2ccc(S(=O)(=O)N3CCOCC3)cc2C1=Cc1ncc[nH]1 [10720/F11]	5.0
Cc1c(Br)ccc2c1C(=Cc1ccc(Br)cc1)C(=O)N2 [10717/C08]	7.0
CNS(=O)(=O)c1ccc2c(c1)C(=Cc1nn(C)cc1Cl)C(=O)N2 [10721/D03]	17.8
Cc1cc(C=C2C(=O)Nc3c(Br)cc(Br)cc32)sc1C [10721/A04]	6.5
O=C1Nc2c(Br)cc(Br)cc2C1=Cc1ccc(Cl)s1 [10721/A07]	-4.7
COc1ccc(O)c(C=C2C(=O)Nc3ccc(S(=O)(=O)Nc4ccc(C(F)(F)F)cc4)cc32)c1 [10720/E10]	-4.1
COc1cccc(O)c1C=C1C(=O)Nc2ccc(Br)c(C)c21 [10717/C10]	-8.0
COc1cc(O)ccc1C=C1C(=O)Nc2ccc(S(=O)(=O)Nc3ccc(C(F)(F)F)cc3)cc21 [10720/E03]	34.3
CCOc1cc(C=C2C(=O)Nc3ccc(CCCl)cc32)ccc1O [10720/G09]	2.1
COc1ccc(C=C2C(=O)Nc3ccc(CCCl)cc32)cc1OC [10720/G04]	2.4
CNS(=O)(=O)c1ccc2c(c1)C(=Cc1ccccc1O)C(=O)N2 [10720/D05]	4.8
Cc1c(Br)ccc2c1C(=Cc1ccc(O)c(C(C)(C)C)c1)C(=O)N2 [10721/C09]	17.5
Cc1[nH]c(C=C2C(=O)Nc3ccc(Br)c(C)c32)c(Br)c1Br [10717/C11]	4.6
COc1cc(O)ccc1C=C1C(=O)Nc2ccc(S(=O)(=O)N3CCOCC3)cc21 [10720/F03]	10.6
CNS(=O)(=O)c1ccc2c(c1)C(=Cc1cc([N+](=O)[O-])cc(CCl)c1O)C(=O)N2 [10721/D06]	1.6
CNS(=O)(=O)c1ccc2c(c1)C(=Cc1ccccc1)C(=O)N2 [10720/D06]	10.1
O=C1Nc2ccc(S(=O)(=O)N3CCOCC3)cc2C1=Cc1c(F)cc(F)cc1F [10720/F02]	9.1
Cc1c(Br)ccc2c1C(=Cc1cc([N+](=O)[O-])cc(CCl)c1O)C(=O)N2 [10721/C06]	14.4
COc1cc(O)ccc1C=C1C(=O)Nc2ccc(CCCl)cc21 [10720/G03]	2.6
CNS(=O)(=O)c1ccc2c(c1)C(=Cc1cc(OC)ccc1O)C(=O)N2 [10720/D10]	-6.6
CNS(=O)(=O)c1ccc2c(c1)C(=Cc1c(C)cc(O)cc1O)C(=O)N2 [10720/D08]	3.3
CC(C)(C)c1cc(C=C2C(=O)Nc3ccc(I)cc32)cc(Br)c1O [10721/B10]	20.9
CNS(=O)(=O)c1ccc2c(c1)C(=Cc1ccc(SC)s1)C(=O)N2 [10720/D07]	11.8
O=C1Nc2ccc(S(=O)(=O)Nc3ccc(C(F)(F)F)cc3)cc2C1=Cc1ccccc1 [10720/E06]	25.5
COc1ccc(C=C2C(=O)Nc3ccc(S(=O)(=O)N4CCOCC4)cc32)cc1OC [10720/F04]	10.6

Compound	Fik Kinase %Inhibition [%]
Cc1c(Br)ccc2c1C(=Cc1ccc(Cl)s1)C(=O)N2 [10721/C07]	10.9
CC(C)(C)c1cc(C=C2C(=O)Nc3c(Br)cc(Br)cc32)cc(Br)c1O [10721/A10]	5.2
CCOc1ccccc1C=C1C(=O)Nc2c(Br)cc(Br)cc21 [10717/A02]	0.1
CNS(=O)(=O)c1ccc2c(c1)C(=Cc1ccc(OC)c(OC)c1)C(=O)N2 [10720/D04]	15.6
O=C1Nc2ccc(S(=O)(=O)Nc3ccc(C(F)(F)F)cc3)cc2C1=Cc1ncc[nH]1 [10720/E11]	9.3
COc1ccc(O)c(C=C2C(=O)Nc3ccc(CCCl)cc32)c1 [10720/G10]	-36.6
Cc1c(Br)ccc2c1C(=Cc1cccn1C)C(=O)N2 [10717/C04]	-0.8
CC(C)(C)c1cc(C=C2C(=O)Nc3ccc(I)cc32)ccc1O [10721/B09]	9.0
Cn1c(C=C2C(=O)Nc3c(Br)cc(Br)cc32)nc2ccccc21 [10721/A02]	10.6
Cc1c(Br)ccc2c1C(=Cc1ccc[nH]1)C(=O)N2 [10717/C09]	77.1
O=C1Nc2ccc(CCCl)cc2C1=Cc1ncc[nH]1 [10720/G11]	-18.0
Cc1cc(O)cc(O)c1C=C1C(=O)Nc2ccc(CCCl)cc21 [10720/G08]	-17.9
CCOc1cc(C=C2C(=O)Nc3ccc(S(=O)(=O)Nc4ccc(C(F)(F)F)cc4)cc32)ccc1O [10720/E09]	11.5
CC(C)(C)c1cc(C=C2C(=O)Nc3ccc(I)cc32)cc(C(C)(C)C)c1O [10721/B11]	-2.1
CNS(=O)(=O)c1ccc2c(c1)C(=Cc1nc3ccccc3n1C)C(=O)N2 [10721/D02]	15.1
Cc1ccc(C=C2C(=O)Nc3ccc(Br)c(C)c32)s1 [10717/C07]	1.6
CCOc1cc(C=C2C(=O)Nc3ccc(S(=O)(=O)N4CCOCC4)cc32)ccc1O [10720/F09]	5.9
O=C1Nc2ccc(S(=O)(=O)N3CCOCC3)cc2C1=Cc1ccccc1O [10720/F05]	-3.6
Cc1c(Br)ccc2c1C(=Cc1nc3ccccc3n1C)C(=O)N2 [10721/C02]	9.7
O=C1Nc2ccc(S(=O)(=O)N3CCOCC3)cc2C1=Cc1ccccc1 [10720/F06]	11.9
O=C1Nc2ccc(CCCl)cc2C1=Cc1ccccc1O [10720/G05]	-2.9
O=C1Nc2ccc(CCCl)cc2C1=Cc1ccccc1 [10720/G06]	-3.4
CSc1ccc(C=C2C(=O)Nc3ccc(S(=O)(=O)Nc4ccc(C(F)(F)F)cc4)cc32)s1 [10720/E07]	18.8
CNS(=O)(=O)c1ccc2c(c1)C(=Cc1[nH]c(C)cc1C)C(=O)N2 [10721/D08]	3.9
Cc1c(Br)ccc2c1C(=Cc1ccc(F)cc1)C(=O)N2 [10717/C05]	-2.3
Cc1c(Br)ccc2c1C(=Cc1cc(Br)c(O)c(C(C)(C)C)c1)C(=O)N2 [10721/C10]	21.1
O=C1Nc2ccc(CCCl)cc2C1=Cc1c(F)cc(F)cc1F [10720/G02]	5.0

Compound	Fik Kinase %Inhibition [%]
Cc1c(Br)ccc2c1C(=Cc1cc(C(C)(C)C)c(O)c(C(C)(C)C)c1)C(=O)N2 [10721/C11]	13.9
Cc1c(Br)ccc2c1C(=Cc1nn(C)cc1Cl)C(=O)N2 [10721/C03]	16.5
O=C1Nc2c(Br)cc(Br)cc2C1=Cc1cc([N+](=O)[O-])cc(CCl)c1O [10721/A06]	6.4
Cc1cc(C=C2C(=O)Nc3ccc(Br)c(C)c32)sc1C [10721/C04]	21.8
CSc1ccc(C=C2C(=O)Nc3ccc(S(=O)(=O)N4CCOCC4)cc32)s1 [10720/F07]	4.6
Cc1cc(C)c(C=C2C(=O)Nc3ccc(Br)c(C)c32)[nH]1 [10721/C08]	55.8
O=C1Nc2ccc(S(=O)(=O)Nc3ccc(C(F)(F)F)cc3)cc2C1=Cc1ccccc1O [10720/E05]	-13.8
Cc1cc(C)c(C=C2C(=O)Nc3ccc(I)cc32)[nH]1 [10721/B08]	18.5
COc1ccc(O)c(C=C2C(=O)Nc3ccc(S(=O)(=O)N4CCOCC4)cc32)c1 [10720/F10]	-2.6
CNS(=O)(=O)c1ccc2c(c1)C(=Cc1ncc[nH]1)C(=O)N2 [10720/D11]	9.8
Cc1cc(O)cc(O)c1C=C1C(=O)Nc2ccc(S(=O)(=O)N3CCOCC3)cc21 [10720/F08]	-4.1
CSc1ccc(C=C2C(=O)Nc3ccc(CCCl)cc32)s1 [10720/G07]	5.1
Cc1cc(C)c(C=C2C(=O)Nc3c(Br)cc(Br)cc32)[nH]1 [10721/A08]	4.8
O=C1Nc2c(Br)cc(Br)cc2C1=Cc1cc2c([nH]1)CCCC2 [10721/A05]	12.5
Cn1cc(Cl)c(C=C2C(=O)Nc3c(Br)cc(Br)cc32)n1 [10721/A03]	11.4
CCOc1cc(C=C2C(=O)Nc3ccc(S(=O)(=O)NC)cc32)ccc1O [10720/D09]	5.8
Cc1c(Br)ccc2c1C(=Cc1cc3c([nH]1)CCCC3)C(=O)N2 [10721/C05]	56.4
Cc1cc(O)cc(O)c1C=C1C(=O)Nc2ccc(S(=O)(=O)Nc3ccc(C(F)(F)F)cc3)cc21 [10720/E08]	2.5
CNS(=O)(=O)c1ccc2c(c1)C(=Cc1cc(C)c(C)s1)C(=O)N2 [10721/D04]	15.2
CNS(=O)(=O)c1ccc2c(c1)C(=Cc1ccc(Cl)s1)C(=O)N2 [10721/D07]	6.4
O=C1Nc2ccc(I)cc2C1=Cc1cc2c([nH]1)CCCC2 [10721/B05]	45.9
CC(C)(C)c1cc(C=C2C(=O)Nc3c(Br)cc(Br)cc32)cc(C(C)(C)C)c1O [10721/A11]	4.8
COc1ccc(C=C2C(=O)Nc3ccc(S(=O)(=O)Nc4ccc(C(F)(F)F)cc4)cc32)cc1OC [10720/E04]	18.4
O=C1Nc2ccc(S(=O)(=O)Nc3ccc(C(F)(F)F)cc3)cc2C1=Cc1c(F)cc(F)cc1F [10720/E02]	5.7
CNS(=O)(=O)c1ccc2c(c1)C(=Cc1ccc(O)c(C(C)(C)C)c1)C(=O)N2 [10721/D09]	17.6
Cc1c(Br)ccc2c1C(=Cc1c[nH]c3ccccc13)C(=O)N2 [10717/C06]	7.6
